Experimental data reported in ChEMBL document CHEMBL1201862, “PubChem BioAssay data set” (2004).
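Method: 48-hour compound exposure of cells in 96-well plates, five concentrations, linear interpolation of endpoints. Abbreviation: GI50, concentration required for 50% inhibition of growth.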 Calls of active or inactive are those of the source. No stated cut-off is given here; in the data, active = GI50 up to about 1.1 µM and inactive = higher.

Legend:
Experiment in all cases: NCI tumour cell line growth inhibition, 48 h
BT-549 = system: BT-549
UACC-62 = system: UACC-62
MDA-MB-435 = system: MDA-MB-435
HOP-62 = system: HOP-62
HCC 2998 = system: HCC 2998
OVCAR-8 = system: OVCAR-8
U-251 = system: U-251
MDA-MB-231 = system: MDA-MB-231
SK-OV-3 = system: SK-OV-3
NCI-H522 = system: NCI-H522
IGROV-1 = system: IGROV-1
NCI-H226 = system: NCI-H226
LOX IMVI = system: LOX IMVI
M14 = system: M14
UACC-257 = system: UACC-257
A549 = system: A549
DU-145 = system: DU-145
SW-620 = system: SW-620
Malme-3M = system: Malme-3M
SNB-19 = system: SNB-19

| SMILES | GI50 (BT-549) | GI50 (UACC-62) | GI50 (MDA-MB-435) | GI50 (HOP-62) | GI50 (HCC 2998) | GI50 (OVCAR-8) | GI50 (U-251) | GI50 (MDA-MB-231) | GI50 (SK-OV-3) | GI50 (NCI-H522) | GI50 (IGROV-1) | GI50 (NCI-H226) | GI50 (LOX IMVI) | GI50 (M14) | GI50 (UACC-257) | GI50 (A549) | GI50 (DU-145) | GI50 (SW-620) | GI50 (Malme-3M) | GI50 (SNB-19) |
| --- | --- | --- | --- | --- | --- | --- | --- | --- | --- | --- | --- | --- | --- | --- | --- | --- | --- | --- | --- | --- |
| CCCn1c2c(c3ccccc3c1=O)C(=O)c1ccccc1-2 | > 100 µM (inactive) | > 100 µM (inactive) | > 100 µM (inactive) | 14.1 µM (inactive) | > 100 µM (inactive) | 61.1 µM (inactive) | > 61.8 µM (inactive) | > 40.4 µM (inactive) | > 100 µM (inactive) | 2.37 µM (inactive) | > 57.7 µM (inactive) | > 46.5 µM (inactive) | > 100 µM (inactive) | 68.1 µM (inactive) | > 100 µM (inactive) | 36.4 µM (inactive) | > 48.2 µM (inactive) | > 53.5 µM (inactive) | 76.7 µM (inactive) | > 100 µM (inactive) |
| CNC(=O)CN(C)C(=O)CCC(=O)N(C)C | > 100 µM (inactive) | > 100 µM (inactive) | > 100 µM (inactive) | > 100 µM (inactive) | > 100 µM (inactive) | > 100 µM (inactive) | > 100 µM (inactive) | > 100 µM (inactive) | > 100 µM (inactive) | > 100 µM (inactive) | > 100 µM (inactive) | > 100 µM (inactive) | > 100 µM (inactive) | > 100 µM (inactive) | > 100 µM (inactive) | > 100 µM (inactive) | > 100 µM (inactive) | > 100 µM (inactive) | > 100 µM (inactive) | > 100 µM (inactive) |
| O=[N+]([O-])c1ccc(Cl)cc1/C=N/C12CC3CC(CC(C3)C1)C2 | > 55.7 µM (inactive) | 30.6 µM (inactive) | 47.6 µM (inactive) | 60.8 µM (inactive) | > 82.4 µM (inactive) | 43.1 µM (inactive) | 33.2 µM (inactive) | 40.3 µM (inactive) | > 100 µM (inactive) | > 100 µM (inactive) | 55.7 µM (inactive) | 61.5 µM (inactive) | 19.6 µM (inactive) | 45.5 µM (inactive) | > 31.6 µM (inactive) | > 96.8 µM (inactive) | > 100 µM (inactive) | 22 µM (inactive) | 43.6 µM (inactive) | 59.6 µM (inactive) |
| CO/C(N)=C(C#N)/N=C/c1cccs1 | 95.1 µM (inactive) | 35.5 µM (inactive) | 25.8 µM (inactive) | 98.4 µM (inactive) | > 100 µM (inactive) | > 100 µM (inactive) | 74 µM (inactive) | > 100 µM (inactive) | > 100 µM (inactive) | 18.4 µM (inactive) | 77.6 µM (inactive) | > 100 µM (inactive) | 42.6 µM (inactive) | 41.2 µM (inactive) | 32.5 µM (inactive) | > 100 µM (inactive) | > 100 µM (inactive) | 68.1 µM (inactive) | 35.3 µM (inactive) | > 100 µM (inactive) |
| O=C(O)c1nn(-c2ccccc2-c2nnc(O)nc2O)c(=O)[nH]c1=O | > 100 µM (inactive) | > 100 µM (inactive) | > 100 µM (inactive) | > 100 µM (inactive) | > 100 µM (inactive) | > 100 µM (inactive) | > 100 µM (inactive) | > 100 µM (inactive) | > 100 µM (inactive) | > 100 µM (inactive) | > 100 µM (inactive) | > 100 µM (inactive) | > 100 µM (inactive) | > 100 µM (inactive) | > 100 µM (inactive) | > 100 µM (inactive) | > 100 µM (inactive) | > 100 µM (inactive) | > 100 µM (inactive) | > 100 µM (inactive) |
| CC(C)n1c2c(c3ccccc3c1=O)C(=O)c1ccccc1-2 | > 100 µM (inactive) | > 100 µM (inactive) | > 100 µM (inactive) | > 100 µM (inactive) | > 100 µM (inactive) | > 100 µM (inactive) | > 100 µM (inactive) | > 100 µM (inactive) | > 100 µM (inactive) | > 100 µM (inactive) | > 100 µM (inactive) | > 100 µM (inactive) | > 100 µM (inactive) | > 100 µM (inactive) | > 100 µM (inactive) | > 100 µM (inactive) | > 100 µM (inactive) | > 100 µM (inactive) | > 100 µM (inactive) | > 100 µM (inactive) |
| CC1(C)NC2C(=O)c3c([nH]c4ccccc34)[C@]3(C)CCC1CC23 (stereo partly drawn) | > 100 µM (inactive) | > 100 µM (inactive) | > 100 µM (inactive) | > 100 µM (inactive) | > 100 µM (inactive) | > 100 µM (inactive) | > 100 µM (inactive) | > 100 µM (inactive) | – | > 100 µM (inactive) | > 100 µM (inactive) | > 100 µM (inactive) | > 100 µM (inactive) | – | > 100 µM (inactive) | > 100 µM (inactive) | > 100 µM (inactive) | > 100 µM (inactive) | > 100 µM (inactive) | – |
| CC1C(c2ccccc2O)c2cc3c(cc2OC1N1CCCC1)OCO3 (stereo not drawn) | 32.3 µM (inactive) | 35.5 µM (inactive) | 26.9 µM (inactive) | 21.4 µM (inactive) | 40.6 µM (inactive) | 11.5 µM (inactive) | 31.7 µM (inactive) | 27.8 µM (inactive) | 88.7 µM (inactive) | 23.2 µM (inactive) | 39.3 µM (inactive) | 27.9 µM (inactive) | 18.4 µM (inactive) | 17.9 µM (inactive) | 25.1 µM (inactive) | 31 µM (inactive) | 45.1 µM (inactive) | 20.8 µM (inactive) | 25.3 µM (inactive) | 49.4 µM (inactive) |
| CC12CCC(C(Br)(Br)C1=O)C2(C)C (stereo not drawn) | 0.173 µM (active) | 0.682 µM (active) | 0.0942 µM (active) | 6 µM (inactive) | 2.28 µM (inactive) | 1.69 µM (inactive) | < 0.0469 µM (active) | 0.104 µM (active) | 1.51 µM (inactive) | 0.0208 µM (active) | < 0.0422 µM (active) | 2.03 µM (inactive) | 0.611 µM (active) | 0.125 µM (active) | 2.74 µM (inactive) | 4.07 µM (inactive) | 6.08 µM (inactive) | < 0.0476 µM (active) | 0.056 µM (active) | 9.62 µM (inactive) |
| CCSc1cc(=O)n(C)c(=O)n1C | > 100 µM (inactive) | > 100 µM (inactive) | > 100 µM (inactive) | > 100 µM (inactive) | > 100 µM (inactive) | > 100 µM (inactive) | > 100 µM (inactive) | > 100 µM (inactive) | > 100 µM (inactive) | > 100 µM (inactive) | – | > 100 µM (inactive) | > 100 µM (inactive) | > 100 µM (inactive) | > 100 µM (inactive) | > 100 µM (inactive) | > 100 µM (inactive) | > 100 µM (inactive) | > 100 µM (inactive) | > 100 µM (inactive) |
| CCN(CC)CCOc1ccc(N2C(=O)c3cc(OC)c(OC)cc3C2=O)cc1 | > 100 µM (inactive) | > 100 µM (inactive) | > 100 µM (inactive) | > 100 µM (inactive) | > 100 µM (inactive) | > 100 µM (inactive) | > 100 µM (inactive) | > 100 µM (inactive) | > 100 µM (inactive) | > 100 µM (inactive) | > 100 µM (inactive) | > 100 µM (inactive) | > 100 µM (inactive) | > 100 µM (inactive) | > 100 µM (inactive) | > 100 µM (inactive) | > 100 µM (inactive) | > 100 µM (inactive) | > 100 µM (inactive) | > 100 µM (inactive) |
| CC1Oc2c(c(=O)oc3ccccc23)[C@@]1(C)CC1C[C@H](C)C(=O)O1 (stereo partly drawn) | 30.8 µM (inactive) | 19.1 µM (inactive) | 21.9 µM (inactive) | 47.6 µM (inactive) | 23.2 µM (inactive) | 30.5 µM (inactive) | 35.1 µM (inactive) | 31.1 µM (inactive) | 50.5 µM (inactive) | 19.5 µM (inactive) | 33.8 µM (inactive) | > 100 µM (inactive) | 27.4 µM (inactive) | 20.3 µM (inactive) | 35.2 µM (inactive) | 87.7 µM (inactive) | 23.3 µM (inactive) | 26.9 µM (inactive) | 19.5 µM (inactive) | 62.4 µM (inactive) |
| O=C(C[N+]1(c2ccccc2)CCOCC1)c1ccccc1 | > 100 µM (inactive) | > 100 µM (inactive) | > 100 µM (inactive) | > 100 µM (inactive) | > 100 µM (inactive) | > 100 µM (inactive) | > 100 µM (inactive) | > 100 µM (inactive) | – | 45.7 µM (inactive) | > 100 µM (inactive) | > 100 µM (inactive) | > 100 µM (inactive) | > 100 µM (inactive) | 72.8 µM (inactive) | > 100 µM (inactive) | > 100 µM (inactive) | – | > 100 µM (inactive) | > 100 µM (inactive) |
| N#Cc1c(Cl)c2cc([N+](=O)[O-])ccc2n2c1nc1ccccc12 | 19.5 µM (inactive) | 12 µM (inactive) | 2.35 µM (inactive) | 18.2 µM (inactive) | 7.53 µM (inactive) | 3.21 µM (inactive) | 7.57 µM (inactive) | 0.492 µM (active) | 23.3 µM (inactive) | 2.54 µM (inactive) | – | 10.6 µM (inactive) | 1.87 µM (inactive) | 1.99 µM (inactive) | 20.6 µM (inactive) | 35.8 µM (inactive) | 3.5 µM (inactive) | 2.26 µM (inactive) | 6.85 µM (inactive) | 13.6 µM (inactive) |
